Test results taken from patent US20240409585A1, “MACROCYCLIC IMMUNOMODULATORS” (priority 2021, published 2024).
Numbered stars: 1 amine (or outer) side, 2 acyl side, 3 side chain; on linkers, the order of the positions; unused ones are H or OH. Bridge positions count the residues as written; N and C are the ends. Square brackets hold non-standard residues; d marks the D form. Peptide text beside a SMILES is read from it. * marks the point of attachment. ξ: configuration not given here. X10 = O=C(CCc1c[nH]cn1)NCc1cccc(C[C@H](N[*:1])C(=O)[*:2])c1; Bip(4'-NHAc) = CC(=O)Nc1ccc(-c2ccc(C[C@H](N)C(=O)O)cc2)cc1; Phe(3-CF3) = N[C@@H](Cc1cccc(C(F)(F)F)c1)C(=O)O; Ala(morpholin-4-yl) = N[C@@H](CN1CCOCC1)C(=O)O; Phe(4-CONH2) = NC(=O)c1ccc(C[C@H](N)C(=O)O)cc1; Phe(4-COOH) = N[C@@H](Cc1ccc(C(=O)O)cc1)C(=O)O; X4 = O=C([C@H](Cc1ccc2cc[nH]c2c1)N[*:1])[*:2]; Bip = N[C@@H](Cc1ccc(-c2ccccc2)cc1)C(=O)O; Phe(3-CN) = N#Cc1cccc(C[C@H](N)C(=O)O)c1; Phe(3-Me) = Cc1cccc(C[C@H](N)C(=O)O)c1; Abu(3S-NH2) = C[C@H](N)[C@H](N)C(=O)O; Val(3-OH) = CC(C)(O)[C@H](N)C(=O)O; hPhe = N[C@@H](CCc1ccccc1)C(=O)O; Cha = N[C@@H](CC1CCCCC1)C(=O)O; Thr(3ξ) = CC(O)[C@H](N)C(=O)O; Carboxymethyl = O=C(O)C*; NMeA = CN[C@@H](C)C(=O)O; Orn = NCCC[C@H](N)C(=O)O; Dab = NCC[C@H](N)C(=O)O

Experiments:
[1] = molecular target: T1, PE-labeled human PD-L1-Ig binding to Jurkat cell line over-expressing human PD-1 (Jurkat-PD-1) (Homo sapiens, UniProt Q15116); assay: Jurkat-PD-1 Cell Binding High-Content Screening Assay (CBA): Method 2 (presence and absence of tween-20); settings: Jurkat-PD-1 cells, PE-labeled PD-L1-Ig 20 nM; presence or absence of tween-20 not given; head μM; read-out: CBA Method 2 μM
T1 construct: expressed in transfected cells; host or cells: Jurkat
T1 sequence (Q15116 25-288): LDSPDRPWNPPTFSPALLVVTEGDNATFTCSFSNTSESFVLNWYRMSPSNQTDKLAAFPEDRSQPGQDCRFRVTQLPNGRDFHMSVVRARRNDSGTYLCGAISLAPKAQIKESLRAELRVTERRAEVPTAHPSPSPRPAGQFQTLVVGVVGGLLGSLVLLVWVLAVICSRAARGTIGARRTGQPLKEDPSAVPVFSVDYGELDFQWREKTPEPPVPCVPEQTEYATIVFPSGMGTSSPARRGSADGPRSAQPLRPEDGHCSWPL
Experimental: Jurkat-PD-1 Cell Binding High-Content Screening Assay (CBA): Method 2
Phycoerythrin (PE) was covalently linked to the Ig epitope tag of human PD-L1-Ig and fluorescently labeled PD-L1-Ig was used for binding studies with a Jurkat cell line over-expressing human PD-1 (Jurkat-PD-1). […] 100 nl of compound was added to cells followed by incubation at 37° C. for 2 hours. To interrogate potential issues with compound aggregation, compounds were tested in the presence and absence of tween-20 detergent. […] Then, 5 μl of PE-labeled PD-L1-Ig (20 nM final), diluted in DMEM supplemented with 10% fetal calf serum. […] Data was collected and processed using a Cell Insight NXT High Content Imager and associated software.

[2] = molecular target: T1, PE-labeled human PD-L1-Ig binding to Jurkat cell line over-expressing human PD-1 (Jurkat-PD-1); assay: Jurkat-PD-1 Cell Binding High-Content Screening Assay (CBA): Method 1; settings: Jurkat-PD-1 cells, PE-labeled PD-L1-Ig; μM; read-out: CBA Method 1 μM

Compound	IC50 [1]	IC50 [2]
CC(=O)Nc1ccc(-c2ccc(C[C@@H]3NC(=O)[C@H](Cc4cccc(C)c4)NC(=O)[C@H](CC(=O)O)NC(=O)[C@H](Cc4ccc(OCC(=O)O)cc4)NC(=O)[C@H](C(C)O)NC(=O)CSC[C@@H](C(=O)N[C@@H](CCN)C(N)=O)NC(=O)[C@H](CO)NC(=O)[C@H](C(C)(C)O)NC(=O)[C@H](CC4CCCCC4)NC(=O)[C@H](CCN)NC(=O)[C@@H](CC(C)C)NC(=O)[C@H](C)N(C)C(=O)[C@H](Cc4ccc(C(N)=O)cc4)NC(=O)[C@H](Cc4ccc(-c5ccccc5)cc4)NC3=O)cc2)cc1 (stereo partly drawn) [Example 5071] ({CH2CO}-[Thr(3ξ)]Y(Carboxymethyl)D[Phe(3-Me)][Bip(4'-NHAc)][Bip][Phe(4-CONH2)][NMeA][dL][Dab][Cha][Val(3-OH)]SC[Dab]-NH2; thioether N-14)	0.0261 µM	0.0322 µM
Cc1cccc(C[C@@H]2NC(=O)[C@H](CC(=O)O)NC(=O)[C@H](Cc3ccc(OCC(=O)O)cc3)NC(=O)[C@H](CN3CCOCC3)NC(=O)CSC[C@@H](C(=O)N[C@@H](CCN)C(N)=O)NC(=O)[C@H](CCCN)NC(=O)[C@H](C(C)C)NC(=O)[C@H](CC3CCCCC3)NC(=O)[C@H](CCN)NC(=O)[C@@H](CC(C)C)NC(=O)[C@H](C)N(C)C(=O)[C@H](CCC(N)=O)NC(=O)[C@H](Cc3ccc(-c4ccccc4)cc3)NC(=O)[C@H](Cc3ccc4cc[nH]c4c3)NC2=O)c1 [Example 5037] ({CH2CO}-[Ala(morpholin-4-yl)]Y(Carboxymethyl)D[Phe(3-Me)][X4][Bip]Q[NMeA][dL][Dab][Cha]V[Orn]C[Dab]-NH2; thioether N-14)	0.0304 µM	0.0138 µM
Cc1cccc(C[C@@H]2NC(=O)[C@H](CC(=O)O)NC(=O)[C@H](Cc3ccc(OCC(=O)O)cc3)NC(=O)[C@H](CN3CCOCC3)NC(=O)CSC[C@@H](C(=O)N[C@@H](CCN)C(N)=O)NC(=O)[C@H](CCCN)NC(=O)[C@H](C(C)C)NC(=O)[C@H](CC3CCCCC3)NC(=O)[C@H](CCN)NC(=O)[C@@H](CC(C)C)NC(=O)[C@H](C)N(C)C(=O)[C@H](CCC(N)=O)NC(=O)[C@H](Cc3ccc(-c4ccccc4)cc3)NC(=O)[C@H](Cc3cccc(C#N)c3)NC2=O)c1 [Example 5030] ({CH2CO}-[Ala(morpholin-4-yl)]Y(Carboxymethyl)D[Phe(3-Me)][Phe(3-CN)][Bip]Q[NMeA][dL][Dab][Cha]V[Orn]C[Dab]-NH2; thioether N-14)	0.0043 µM	0.0047 µM
CC(=O)Nc1ccc(-c2ccc(C[C@@H]3NC(=O)[C@H](Cc4cccc(C(F)(F)F)c4)NC(=O)[C@H](CC(=O)O)NC(=O)[C@H](Cc4ccc(C(=O)O)cc4)NC(=O)[C@H]([C@H](C)N)NC(=O)CSC[C@@H](C(=O)N[C@@H](CCN)C(N)=O)NC(=O)[C@H](CCCN)NC(=O)[C@H](C(C)C)NC(=O)[C@H](CC4CCCCC4)NC(=O)[C@H](CCN)NC(=O)[C@@H](CC(C)C)NC(=O)[C@H](C)N(C)C(=O)[C@H](CCC(N)=O)NC(=O)[C@H](Cc4ccc(-c5ccccc5)cc4)NC3=O)cc2)cc1 [Example 5050] ({CH2CO}-[Abu(3S-NH2)][Phe(4-COOH)]D[Phe(3-CF3)][Bip(4'-NHAc)][Bip]Q[NMeA][dL][Dab][Cha]V[Orn]C[Dab]-NH2; thioether N-14)	0.0059 µM	0.0065 µM
Cc1cccc(C[C@@H]2NC(=O)[C@H](CC(=O)O)NC(=O)[C@H](Cc3ccc(OCC(=O)O)cc3)NC(=O)[C@H](CN3CCOCC3)NC(=O)CSC[C@@H](C(=O)N[C@@H](CCN)C(N)=O)NC(=O)[C@H](CCCN)NC(=O)[C@H](C(C)C)NC(=O)[C@H](CCc3ccccc3)NC(=O)[C@H](CCN)NC(=O)[C@@H](CC(C)C)NC(=O)[C@H](C)N(C)C(=O)[C@H](CCC(N)=O)NC(=O)[C@H](Cc3ccc(-c4ccccc4)cc3)NC(=O)[C@H](Cc3ccc(C(=O)O)cc3)NC2=O)c1 [Example 5015] ({CH2CO}-[Ala(morpholin-4-yl)]Y(Carboxymethyl)D[Phe(3-Me)][Phe(4-COOH)][Bip]Q[NMeA][dL][Dab][hPhe]V[Orn]C[Dab]-NH2; thioether N-14)	0.31 µM	0.21 µM
Cc1cccc(C[C@@H]2NC(=O)[C@H](CC(=O)O)NC(=O)[C@H](Cc3ccc(OCC(=O)O)cc3)NC(=O)[C@H](Cc3cccc(CNC(=O)CCc4c[nH]cn4)c3)NC(=O)CSC[C@@H](C(=O)N[C@@H](CCN)C(N)=O)NC(=O)[C@H](CCCN)NC(=O)[C@H](C(C)C)NC(=O)[C@H](CC3CCCCC3)NC(=O)[C@H](CCN)NC(=O)[C@@H](CC(C)C)NC(=O)[C@H](C)N(C)C(=O)[C@H](CCC(N)=O)NC(=O)[C@H](Cc3ccc(-c4ccccc4)cc3)NC(=O)[C@H](Cc3ccc(C(=O)O)cc3)NC2=O)c1 [Example 5035] ({CH2CO}-[X10]Y(Carboxymethyl)D[Phe(3-Me)][Phe(4-COOH)][Bip]Q[NMeA][dL][Dab][Cha]V[Orn]C[Dab]-NH2; thioether N-14)	0.0035 µM	0.0042 µM
